# According to US20250101062A1, “ANTIMICROBIAL PEPTIDES” (Board of Regents of the University of Nebraska, priority 2023, published 2025):
# Where no end group is shown, it is not given here.
# System: S. aureus USA300 biofilms in murine wounds
# Test: In vivo biofilm assay, murine wound model
# Set-up: species or system BALB/c mice
# Conditions: topical, 24 h
# Description: Preparation of Inoculum. An overnight culture of S. aureus USA300 LAC was inoculated in fresh MHB and incubated at 37° C. for 3 hours. The suspension was centrifuged at 3000 g for 5 minutes, and the supernatant was discarded. The bacteria were resuspended in 1×PBS, and the OD600 was adjusted to 0.6 (˜3×10^7 CFU/mL).
# Experimental Animals. An alternative murine wound model has been established which is slightly different from other studies (Su, et al. (2019) Mol. Pharmaceutics 16:2011-2020; Su, et al. (2023) J. Controlled Release 356:131-141). Female BALB/c mice (3-4 weeks, ˜20 g) were fed with standardized food (Teklad Laboratory diet for rodents) and water (Hydropac Alternative Watering System) ad libitum. Mice were kept in ventilated cages (IVCs) at a temperature of 20-24° C., a humidity of 50-60%, 60 air exchanges per hour, and a 12/12 hour light/dark cycle. All materials, including IVCs, lids, feeders, bottles, bedding, and water, were autoclaved before use. All animal manipulations were performed in a class II laminar flow biological safety cabinet. The study was approved by the Institutional Animal Care and Use Committee (IACUC) of UNMC (Protocol no. 22-015-08-FC).
# In Vivo Biofilm Assay. Mice were anesthetized by intraperitoneal injection of ketamine-xylazine (100 mg/kg+10 mg/kg). […] Finally, the plates were incubated at 37° C. for 20 hours and the CFUs were counted. […]
Compound,reduction of bacterial burden (10 mg/kg per wound) [logs],bacterial CFU decrease (4.4 mg/kg per wound) [log]
CCCCCCCCCC(=O)N[C@@H](Cc1c[nH]c2ccccc12)C(=O)N[C@H](CC(N)=O)C(=O)N[C@@H](CC(=O)O)C(=O)N[C@@H]1C(=O)NCC(=O)N[C@@H](CCCN)C(=O)N[C@@H](CC(=O)O)C(=O)N[C@H](C)C(=O)N[C@@H](CC(=O)O)C(=O)NCC(=O)N[C@H](CO)C(=O)N[C@@H]([C@H](C)CC(=O)O)C(=O)N[C@@H](CC(=O)c2ccccc2N)C(=O)O[C@@H]1C [Daptomycin],~3,
RRWWRWWR-NH2 [W543],,2
